In article PMC6321525 (Molecules, 2018):
Several values for one entry are separate records, joined by “and”; a condition that tells them apart may be missing. Equal entries are not always repeated.

Experiments:
Experiment in all cases: biochemical
Type in all cases: biochemical
[1] = biological target: EeAChE (acetylcholinesterase from Electrophorus electricus) (Electrophorus electricus, UniProt O42275); conditions: for IC50: with standard error, 25 °C, 10 min preincubation, read-out: IC50, inhibition of EeAChE; for fold enhanced potency against EeAChE compared to donepezil: ratio of IC50 values
Chain of EeAChE (acetylcholinesterase from Electrophorus electricus) (O42275 24-633): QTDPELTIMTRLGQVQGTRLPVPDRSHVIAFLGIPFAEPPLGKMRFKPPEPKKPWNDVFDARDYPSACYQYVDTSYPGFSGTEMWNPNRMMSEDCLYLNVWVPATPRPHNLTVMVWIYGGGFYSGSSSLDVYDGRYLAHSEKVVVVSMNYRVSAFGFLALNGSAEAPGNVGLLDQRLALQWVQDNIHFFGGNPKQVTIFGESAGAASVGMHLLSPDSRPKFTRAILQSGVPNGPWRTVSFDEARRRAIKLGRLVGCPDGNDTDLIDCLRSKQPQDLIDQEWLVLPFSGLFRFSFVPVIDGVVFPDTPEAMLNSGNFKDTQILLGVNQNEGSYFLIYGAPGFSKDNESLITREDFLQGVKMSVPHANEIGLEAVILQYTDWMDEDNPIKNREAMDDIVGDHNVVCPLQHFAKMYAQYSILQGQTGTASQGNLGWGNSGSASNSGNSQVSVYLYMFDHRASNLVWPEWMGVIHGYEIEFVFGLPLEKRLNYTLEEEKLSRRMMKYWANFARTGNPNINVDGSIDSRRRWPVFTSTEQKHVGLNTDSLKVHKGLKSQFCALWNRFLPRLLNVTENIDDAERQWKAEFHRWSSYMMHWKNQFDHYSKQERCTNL
Experimental: (§1) Experiments were performed as previously described. […] All assays were performed in duplicate or triplicate.

[2] = biological target: T1, EfBChE (butyrylcholinesterase from equine serum) (Equus caballus, UniProt P81908); conditions: for SI, selectivity index based on IC50 values (EeAChE vs EfBChE): ratio of EfBChE to EeAChE IC50 values; for IC50: with standard error, 25 °C, 10 min preincubation, read-out: IC50, inhibition of EfBChE; for fold better than donepezil against EfBChE: ratio of IC50 values
T1 construct: EfBChE from equine serum (Equus ferus); from tissue; host or cells: equine serum
T1 sequence (P81908 whole entry): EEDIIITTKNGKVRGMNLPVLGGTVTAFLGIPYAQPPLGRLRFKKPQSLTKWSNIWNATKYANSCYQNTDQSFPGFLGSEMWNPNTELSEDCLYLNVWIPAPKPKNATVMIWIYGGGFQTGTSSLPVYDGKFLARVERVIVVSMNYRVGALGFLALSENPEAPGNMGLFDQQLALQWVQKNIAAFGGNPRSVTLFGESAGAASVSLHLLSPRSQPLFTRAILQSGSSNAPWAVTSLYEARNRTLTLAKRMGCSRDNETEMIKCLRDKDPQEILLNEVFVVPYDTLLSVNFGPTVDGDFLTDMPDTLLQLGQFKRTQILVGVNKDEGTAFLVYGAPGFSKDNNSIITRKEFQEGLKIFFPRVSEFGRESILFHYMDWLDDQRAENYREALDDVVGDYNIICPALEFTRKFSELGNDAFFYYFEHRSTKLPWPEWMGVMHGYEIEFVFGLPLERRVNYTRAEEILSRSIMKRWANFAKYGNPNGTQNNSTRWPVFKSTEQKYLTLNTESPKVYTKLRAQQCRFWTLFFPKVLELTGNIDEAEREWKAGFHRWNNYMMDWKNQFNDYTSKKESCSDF
Experimental: as §1

BACE1 = biological target: T2, BACE1 (Homo sapiens, UniProt P56817); conditions: for IC50: fluorescence after 2 h, read-out: IC50, inhibition of BACE1
T2 construct: purchased Millipore-Sigma CS0010-1KT
T2 sequence (P56817 46-457): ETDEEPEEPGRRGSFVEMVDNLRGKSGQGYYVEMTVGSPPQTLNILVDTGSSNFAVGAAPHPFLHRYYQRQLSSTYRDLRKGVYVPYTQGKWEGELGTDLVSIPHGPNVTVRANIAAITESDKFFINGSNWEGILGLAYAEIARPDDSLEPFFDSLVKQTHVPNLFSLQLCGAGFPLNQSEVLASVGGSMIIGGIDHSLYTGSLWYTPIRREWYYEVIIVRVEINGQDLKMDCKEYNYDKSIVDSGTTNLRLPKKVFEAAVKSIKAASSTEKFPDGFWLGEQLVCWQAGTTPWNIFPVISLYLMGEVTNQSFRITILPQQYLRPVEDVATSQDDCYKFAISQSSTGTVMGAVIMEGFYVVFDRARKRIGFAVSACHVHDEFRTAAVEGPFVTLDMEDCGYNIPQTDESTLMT
Experimental: Inhibition of BACE1 was tested using the commercial kit (cat CS0010-1KT, Millipore-Sigma, St. Louis, MO, USA) following the directions accompanying the kit. […] Dilutions were originally performed in DMSO, and 2 μL added to the reaction in order to account for any moderation of activity from the vehicle. Fluorescent measurements were taken after 2 h. The resulting rates were normalized to the reaction without inhibitor. In order to get an appropriate sigmoidal fit, two additional points (400 and 1000 μM) were added to the data when needed.

[3] = biological target: HsAChE (acetylcholinesterase from Homo sapiens) (Homo sapiens, UniProt P22303)
Chain of HsAChE (acetylcholinesterase from Homo sapiens) (P22303 32-614): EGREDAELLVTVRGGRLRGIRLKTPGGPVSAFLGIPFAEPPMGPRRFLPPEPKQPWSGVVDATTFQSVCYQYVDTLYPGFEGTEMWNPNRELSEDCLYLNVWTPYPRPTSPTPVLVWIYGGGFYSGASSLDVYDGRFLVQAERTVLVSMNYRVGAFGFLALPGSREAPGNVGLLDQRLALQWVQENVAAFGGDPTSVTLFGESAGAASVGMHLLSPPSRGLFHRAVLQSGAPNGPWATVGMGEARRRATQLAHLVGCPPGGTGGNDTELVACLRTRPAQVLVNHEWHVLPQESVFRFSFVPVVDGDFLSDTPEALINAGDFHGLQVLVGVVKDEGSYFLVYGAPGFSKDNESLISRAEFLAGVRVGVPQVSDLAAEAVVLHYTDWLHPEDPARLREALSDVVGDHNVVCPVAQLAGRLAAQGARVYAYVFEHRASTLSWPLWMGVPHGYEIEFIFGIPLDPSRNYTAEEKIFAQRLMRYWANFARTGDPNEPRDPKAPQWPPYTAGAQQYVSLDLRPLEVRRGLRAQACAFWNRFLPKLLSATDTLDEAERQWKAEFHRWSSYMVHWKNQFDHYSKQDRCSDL
Experimental: as §1

Compound	IC50 [1]	SI, selectivity index based on IC50 values (EeAChE vs EfBChE) [2]	IC50 [2]	fold better than donepezil against EfBChE [2] [fold]	IC50 (BACE1) [nM]	fold enhanced potency against EeAChE compared to donepezil [1]	BACE1 IC50 within fold of the IC50 of donepezil (BACE1) [fold]	SI, selectivity index of EeAChE versus HsAChE, based on IC50 values [3]	IC50 ([3]; 37 °C, read-out: IC50, inhibition of HsAChE) [nM]	fold better inhibition of HsAChE than donepezil ([3]; ratio of IC50 values) [fold]	fold more selective for EfBChE (over EeAChE) [2] [fold]
COc1cc2c(cc1O)C(=O)C(CC1CCN(Cc3ccccc3)CC1)C2 (centres unmarked) [Compound 7, 2-[(1-Benzylpiperidin-4-yl)methyl]-6-hydroxy-5-methoxy-2,3-dihydroinden-1-one]	409 nM and 410 nM	11	4300 ± 400 nM								
COc1cc2c(cc1OCCCN)C(=O)C(CC1CCN(Cc3ccccc3)CC1)C2 (centres unmarked) [Compound 8a, 6-[(3-Aminopropyl)oxy]-2-[(1-benzylpiperidin-4-yl)methyl]-5-methoxy-2,3-dihydroinden-1-one]	54 ± 3 nM	11	573 nM and 570 nM	4	95000 ± 12000						
COc1cc2c(cc1OCCN)C(=O)C(CC1CCN(Cc3ccccc3)CC1)C2 (centres unmarked) [Compound 8b, 6-[(3-Aminoethyl)oxy]-2-[(1-benzylpiperidin-4-yl)methyl]-5-methoxy-2,3-dihydroinden-1-one]	21 ± 3 nM	23	478 nM and 480 nM	4	~100000	6 fold					
CCCOc1cc2c(cc1OC)CC(CC1CCN(Cc3ccccc3)CC1)C2=O (centres unmarked) [Compound 8c, 2-[(1-Benzylpiperidin-4-yl)methyl]-5-methoxy-6-propoxy-2,3-dihydroinden-1-one]	140 ± 20 nM	15	2050 nM and 2100 nM		6100 ± 100		≤ 5				
COc1cc2c(cc1OCCCl)C(=O)C(CC1CCN(Cc3ccccc3)CC1)C2 (centres unmarked) [Compound 8d, 2-[(1-Benzylpiperidin-4-yl)methyl]-6-[(chloroethyl)oxy]-5-methoxy-2,3-dihydroinden-1-one]	59 ± 4 nM	22	1300 ± 100 nM	2	~100000	2 fold					
COc1cc2c(cc1OCCBr)C(=O)C(CC1CCN(Cc3ccccc3)CC1)C2 (centres unmarked) [Compound 8e, 2-[(1-Benzylpiperidin-4-yl)methyl]-6-[(bromoethyl)oxy]-5-methoxy-2,3-dihydroinden-1-one]	44 ± 3 nM	30	1290 nM and 1300 nM	2	7900 ± 900	3 fold	≤ 5				
COc1cc2c(cc1OCCCCBr)C(=O)C(CC1CCN(Cc3ccccc3)CC1)C2 (centres unmarked) [Compound 8f, 2-[(1-Benzylpiperidin-4-yl)methyl]-6-[(bromobutyl)oxy]-5-methoxy-2,3-dihydroinden-1-one]	61 ± 7 nM	21	1280 nM and 1300 nM		7900 ± 2400		≤ 5				
COc1cc2c(cc1OCCCCCCCCCCCCBr)C(=O)C(CC1CCN(Cc3ccccc3)CC1)C2 (centres unmarked) [Compound 8g, 2-[(1-Benzylpiperidin-4-yl)methyl]-6-[(bromododecyl)oxy]-5-methoxy-2,3-dihydroinden-1-one]	789 nM and 790 nM	6.6	5150 nM and 5200 nM								
COc1cc2c(cc1OCc1ccccc1)C(=O)C(CC1CCN(Cc3ccccc3)CC1)C2 (centres unmarked) [Compound 8h]	131 nM and 130 nM	5.4	704 nM and 700 nM	3	58000 ± 1000						
COc1cc2c(cc1OCc1ccc(C)cc1)C(=O)C(CC1CCN(Cc3ccccc3)CC1)C2 (centres unmarked) [Compound 8i]	228 nM and 230 nM	4.3	997 nM and 1000 nM		58000 ± 2000						
COc1ccc(COc2cc3c(cc2OC)CC(CC2CCN(Cc4ccccc4)CC2)C3=O)cc1 (centres unmarked) [Compound 8j]	125 nM and 130 nM	5.2	668 nM and 670 nM								
COc1cc2c(cc1OCc1ccc([N+](=O)[O-])cc1)C(=O)C(CC1CCN(Cc3ccccc3)CC1)C2 (centres unmarked) [Compound 8k]	126 nM and 130 nM	3.5	462 nM and 460 nM								
COc1cc2c(cc1OCc1ccc(Br)cc1)C(=O)C(CC1CCN(Cc3ccccc3)CC1)C2 (centres unmarked) [Compound 8l]	71 ± 15 nM	10	720 ± 100 nM		3400 ± 100		≤ 5				
COc1cc2c(cc1OCc1ccc(F)cc1)C(=O)C(CC1CCN(Cc3ccccc3)CC1)C2 (centres unmarked) [Compound 8m]	81 ± 5 nM	7.0	570 ± 100 nM		~100000						
COc1cc2c(cc1OCc1cccc(F)c1)C(=O)C(CC1CCN(Cc3ccccc3)CC1)C2 (centres unmarked) [Compound 8n]	156 nM and 160 nM	6.0	959 nM and 960 nM		12000 ± 3000						
COc1cc2c(cc1OCc1ccccc1F)C(=O)C(CC1CCN(Cc3ccccc3)CC1)C2 (centres unmarked) [Compound 8o]	124 nM and 120 nM	6.3	764 nM and 760 nM		21000 ± 4000						
COc1cc2c(cc1OCc1ccccc1C(F)(F)F)C(=O)C(CC1CCN(Cc3ccccc3)CC1)C2 (centres unmarked) [Compound 8p]	32 ± 10 nM	7.8	254 nM and 250 nM	8	34000 ± 9000	4 fold					
COc1cc2c(cc1OCc1ccc(F)cc1F)C(=O)C(CC1CCN(Cc3ccccc3)CC1)C2 (centres unmarked) [Compound 8q]	113 nM and 110 nM	4.4	483 nM and 480 nM	4	37000 ± 5000						
COc1cc2c(cc1OCc1cc(F)ccc1F)C(=O)C(CC1CCN(Cc3ccccc3)CC1)C2 (centres unmarked) [Compound 8r]	90 ± 9 nM	6.7	601 nM and 600 nM	3	~100000						
COc1cc2c(cc1OCc1c(F)cccc1F)C(=O)C(CC1CCN(Cc3ccccc3)CC1)C2 (centres unmarked) [Compound 8s]	16 ± 1 nM	28	438 nM and 440 nM	5	30000 ± 8000	eight					
COc1cc2c(cc1OCc1ccc(Br)cc1F)C(=O)C(CC1CCN(Cc3ccccc3)CC1)C2 (centres unmarked) [Compound 8t]	54 ± 7 nM	6.9	372 nM and 370 nM		169000 ± 2000	2.2 fold		30	1.8 ± 0.6	18	
COc1cc2c(cc1OCc1c(F)cc(F)cc1F)C(=O)C(CC1CCN(Cc3ccccc3)CC1)C2 (centres unmarked) [Compound 8u]	27 ± 4 nM	7.4	199 nM and 200 nM	10	91000 ± 14000	five					
COc1cc2c(cc1OCc1c(F)c(F)c(F)c(F)c1F)C(=O)C(CC1CCN(Cc3ccccc3)CC1)C2 (centres unmarked) [Compound 8v]	172 nM and 170 nM		114 nM and 110 nM	18	29000 ± 6000						1.5
